# Results published in patent US12729458B2, “Discovery and evolution of biologically active metabolites” (The Regents of the University of Colorado, a Body Corporate, priority 2020, dated 2026).
# Entries after “also recorded” stand apart in the source; their conditions may differ. Read-outs that look alike come from different tables or passages of the source.
# Key:
# [1] = tested on: insulin receptor (IR) phosphorylation (PTP1B-mediated) in HEK293T/17 cells; test: ELISA of insulin receptor (IR) phosphorylation in HEK293T/17 cells; type: cell-based; details: for IR phosphorylation (ELISA signal): 3% DMSO, 10 minutes, starved HEK293T/17 cells, vs 3% DMSO control; for Δμ, null hypothesis compound-(−) = 0: difference of means vs negative control (−)
# Text: Analysis of PTP1B inhibition in HEK293TCells. We prepared HEK293T/17 cells for an enzyme-linked immunosorbent assay (ELISA) by growing them in 75 cm^2 culture flasks (Corning) with DMEM media supplemented with 10% FBS, 100 units/ml penicillin, and 100 units/ml streptomycin. We replaced the media every day for 3-5 days until the cells reached 80-100% confluency.
# We measured the influence of inhibitors on insulin receptor (IR) phosphorylation by using an IR-specific ELISA (FIG. 35). Briefly, we starved cells for 48 hours in FBS-free media and incubated the with inhibitors (all at 3% DMSO) for 10 minutes. After incubation, we lysed cells with lysis buffer (9803, Cell Signaling Technology) supplemented with 1× halt phosphatase inhibitor cocktail and 1× halt protease inhibitor cocktail (Thermo Fisher Scientific) for 10 min, pelleted the cell debris, and used the lysis buffer to dilute each sample to 60 mg/ml total protein. We measured IR phosphorylation in subsequent dilutions of the 60 mg/ml samples with the PathScan® Phospho-Insulin Receptor β (panTyr) Sandwich ELISA Kit (Cell Signaling Technology; #7082).
# Statistical analysis and reproducibility. We determined statistical significance (FIG. 23H) with a two-tailed Student's t-test (details in TABLE 14), and we used an F-test to compare one- and two-parameter models of inhibition (TABLE 12).
# [2] = target: T1, PTP1B (PTP1B1-321) (Homo sapiens, UniProt P18031); test: PTP1B-catalyzed hydrolysis of pNPP in the presence of terpenoids (enzyme kinetics, IC50 from best-fit models); type: biochemical, H. sapiens; details: for IC50: 15 mM pNPP, 10% DMSO; for Ki: PTP1B1-321
# T1 construct: His-tag; made in house; host or cells: E. coli BL21 (DE3), pET21b
# T1 sequence (P18031 1-321): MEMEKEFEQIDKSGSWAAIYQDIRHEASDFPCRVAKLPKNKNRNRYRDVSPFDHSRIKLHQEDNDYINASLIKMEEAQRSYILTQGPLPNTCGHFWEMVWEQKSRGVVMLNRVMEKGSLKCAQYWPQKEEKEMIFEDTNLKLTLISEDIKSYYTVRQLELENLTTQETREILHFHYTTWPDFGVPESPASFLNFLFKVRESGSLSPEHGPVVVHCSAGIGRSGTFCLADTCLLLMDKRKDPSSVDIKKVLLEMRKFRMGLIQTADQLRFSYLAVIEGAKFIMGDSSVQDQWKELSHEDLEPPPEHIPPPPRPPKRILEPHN
# Description: Enzyme kinetics. To examine terpenoid-mediated inhibition, PTP1B-catalyzed hydrolysis of p-nitrophenyl phosphate (pNPP) was measured in the presence of various concentrations of terpenoids. Each reaction included PTP1B ([…]), pNPP (0.33, 0.67, 2, 5, 10, and 15 mM), inhibitors (110 μM, 50 μM, and 15 μM for amorphadiene; 100 μM, 50 μM, and 16.7 μM for taxadiene), and buffer (50 mM HEPES pH=7.5, 0.5 mM TCEP, 50 μg/ml BSA, 10% DMSO). The formation of p-nitrophenol was monitored by measuring absorbance at 405 nm every 10 seconds for 5 minutes on a Spectramax M2 plate reader.
# Kinetic models were evaluated in three steps: (i) Initial-rate measurements collected in the absence and presence of inhibitors were fitted to Michaelis-Menten and inhibition models, respectively (here, the nlinfit and fminsearch functions from MATLAB were used). (ii) An F-test was used to compare the mixed model to the single-parameter model with the least sum squared error (here, the fcdf function from MATLAB was used to assign p-values), and the mixed model was accepted when p<0.05.
# The MATLAB function “nlparci” was used to determine the confidence intervals of kinetic parameters, and those intervals were propagated to estimate corresponding confidence on IC50's.
# Enzyme kinetics. To examine terpenoid-mediated inhibition, we measured PTP-catalyzed hydrolysis of p-nitrophenyl phosphate (pNPP) or 4-methylumbelliferyl phosphate (4-MUP, used when KM for pNPP was large) in the presence of various concentrations of terpenoids. Each reaction included PTP (0.05 μM PTP1B/TCPTP or 0.1 μM SHP1/SHP2 in 50 mM HEPES, 0.5 mM TCEP, 50 μg/ml BSA), pNPP (0.33, 0.67, 2, 5, 10, and 15 mM) or 4-MUP (0.13, 0.27, 0.8, 2.27, 2.93, 4.53, 7.07, and 8 mM), inhibitor (with concentrations listed in the figures), buffer (50 mM HEPES pH=7.3, 50 μg/ml BSA), and DMSO at 10% v/v. We monitored the formation of p-nitrophenol by measuring absorbance at 405 nm every 10 seconds for 5 minutes on a SpectraMax M2 plate reader and the formation of 4-methylumbelliferyl by measuring fluorescence at 450 nm (370 nm ex, 435 nm cutoff, medium gain).
# We used a custom MATLAB script to process all raw kinetic data. This script removed all concentration values that fell outside of either (i) the range of our standard curve (absorbance/fluorescence vs. μM; FIG. 39) or (ii) the initial rate regime (>10% of the pNPP or 4-MUP concentration used in the assay). When this step reduced kinetic dataset to fewer than ten points, we re-measured those datasets to collect at least ten. We fit final datasets, in turn, with a linear regression model (using Matlab's backslash operator).
# We evaluated kinetic models in three steps: (i) We fit initial-rate measurements collected in the absence and presence of inhibitors to Michaelis-Menten and inhibition models, respectively (here, we used the nlinfit and fminsearch functions from MATLAB; TABLE 12). (ii) We used an F-test to compare the mixed model to the single-parameter model with the least sum squared error (here, we used the fedf function from MATLAB to assign p-values), and we accepted the mixed model when p<0.05.
# [3] = FIG. 3h, t-test, unequal variance
# [4] = Example 2, HEPES pH 7.3, ± 95% confidence interval
# [5] = competitive model of inhibition, read-out: Fit par. Ki, competitive model
# [6] = mixed model, competitive constant, read-out: Fit par. Ki,c, mixed model
# [7] = mixed model, uncompetitive constant, read-out: Fit par. Ki,u, mixed model
# [8] = noncompetitive model of inhibition, read-out: Fit par. Ki, noncompetitive model
# [9] = uncompetitive model of inhibition, read-out: Fit par. Ki, uncompetitive model
Structure (SMILES),IR phosphorylation (ELISA signal) ([1]; 930 μM),"IR phosphorylation (ELISA signal) ([1]; 930 μM, listed as AD)","IR phosphorylation (ELISA signal) ([1]; 930 μM, listed as Amorphadiene)","Δμ, null hypothesis AD-DHA = 0 ([1]; difference of means AD vs DHA, FIG. 3h, t-test, unequal variance)","Δμ, null hypothesis compound-(−) = 0 [1, 3]","IC50 ([2]; Example 1, HEPES pH 7.5)","IC50 [2, 4]","Ki [2, 5]","Ki [2, 6]","Ki [2, 7]","Ki [2, 8]","Ki [2, 9]",simultaneous binding with TCS401 (Dixon plot) ([2]; Vo^−1 vs. [TCS401] at various concentrations of AD),simultaneous binding with orthovanadate (Dixon plot) ([2]; Vo^−1 vs. [orthovanadate] at various concentrations of AD),model (mode) of PTP1B inhibition from Michaelis-Menten fits ([2]; pNPP initial rates),IR phosphorylation (ELISA signal) ([1]; 405 μM),"IR phosphorylation (ELISA signal) ([1]; 405 μM, listed as AB)","Δμ, null hypothesis AB-ABOL = 0 ([1]; difference of means AB vs ABOL, FIG. 3h, t-test, unequal variance)"
C=C(C)[C@@H]1CC[C@@H](C)[C@@H]2CCC(C)=C[C@@H]21 [amorphadiene],inhibit PTP1B inside of a HEK293T/17 cell; also recorded: can increase IR phosphorylation over a negative control,increased IR phosphorylation over a negative control,stimulate IR phosphorylation,0.124,0.212,~53 µM,53 ± 8 µM,2.85 µM,86.2 µM,50.1 µM,52.6 µM,46.3 µM,cannot bind simultaneously,can bind simultaneously,noncompetitive or uncompetitive inhibition; also recorded: noncompetitive inhibition,–,–,–
CC(C)=CCC=C(C)C1CC=C(C)CC1 (stereo not drawn) [α-bisabolene],–,–,–,–,0.310,~20 µM,13 ± 2 µM,1.05 µM,9.51 µM,13.7 µM,13.1 µM,11.7 µM,–,–,–,stimulate IR phosphorylation; also recorded: can increase IR phosphorylation over a negative control,increased IR phosphorylation over a negative control,0.309
